In patent publication US9144239B2, “Macrocyclic picolinamides as fungicides” (DOW AGROSCIENCES LLC, priority 2012, dated 2015):
Where two headings read alike, the source gives them in different places.

Columns and labels:
Rhyncosporium secalis = experiment: Fungicidal activity: barley scald (RHYNSE); assay type: in vivo; conditions: 100 ppm, 1 Day Protectant
Method: Technical grades of materials were dissolved in acetone, which were then mixed with nine volumes of water containing 110 ppm Triton X-100. The fungicide solutions were applied onto wheat seedlings using an automated booth sprayer to run-off. All sprayed plants were allowed to air dry prior to further handling. Wheat plants (variety Yuma) were grown from seed in a greenhouse in 50% mineral soil/50% soil-less Metro mix until the first leaf was fully emerged, with 7-10 seedlings per pot. These plants were inoculated with an aqueous spore suspension of Septoria tritici either prior to or after fungicide treatments. After inoculation the plants were kept in 100% relative humidity (one day in a dark dew chamber followed by two to three days in a lighted dew chamber at 20° C.) to permit spores to germinate and infect the leaf. The plants were then transferred to a greenhouse set at 20° C. for disease to develop. When disease symptoms were fully expressed on the 1st leaves of untreated plants, infection levels were assessed on a scale of 0 to 100 percent disease severity. Percent disease control was calculated using the ratio of disease severity on treated plants relative to untreated plants. Evaluation of Fungicidal Activity: Barley Scald (Rhyncosporium secalis; Bayer Code […]) Barley seedlings (variety Harrington) were propagated in soil-less Metro mix, with each pot having 8 to 12 plants, and used in the test when first leaf was fully emerged. Test plants were inoculated by an aqueous spore suspension of Rhyncosporium secalis 24 hr after fungicide treatments. After inoculation the plants were kept in a dew room at 20° C. with 100% relative humidity for 48 hr. The plants were then transferred to a greenhouse set at 20° C. for disease to develop. Fungicide formulation, application and disease assessment on the sprayed leaves followed the procedures as described in the Example A.

[1] = test system: Puccinia triticina; synonym: Puccinia recondita f. sp. tritici; experiment: Fungicide mobility (dropline mobility test): wheat brown rust (PUCCRT); assay type: in vivo; conditions: 1 ug/leaf
How it was run: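 A 2 μl drop of formulated compound (EC blank, 110 ppm Triton X-100 water) was applied to a line 5 cm from the tip of primary leaves of "Yuma" wheat seedlings, 6 replicates. Inoculation with PUCCRT was done 1 day after or 3 days before application. Once disease was fully expressed on controls, the acropetal disease-free zone was measured as percent of line-to-tip distance.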

[2] = 24 h, 1 Day Protectant Mobility, read-out: Dropline Mobility Test PUCCRT 1DPM
[3] = 72 h, 3 Day Curative Mobility, read-out: Dropline Mobility Test PUCCRT 3DCM

| Structure (SMILES) | Disease Control RHYNSE 1 DP (Rhyncosporium secalis) | pest or weed control at 1 µg/leaf [1, 2] [%] | pest or weed control at 1 µg/leaf [1, 3] [%] |
| --- | --- | --- | --- |
| COc1ccnc(C(=O)N[C@H]2COC[C@H](Oc3ccc(F)cc3)[C@@H](Oc3ccc(F)cc3)[C@H](C)OC2=O)c1OC(C)=O [Compound 229, 2-(((3S,7S,8S,9S)-7,8-bis(4-fluorophenoxy)-9-methyl-2-oxo-1,5-dioxonan-3-yl)carbamoyl)-4-methoxypyridin-3-yl acetate] | A (80-100) |  |  |
| COc1ccnc(C(=O)N[C@H]2COC[C@H](OCCCc3ccccc3)[C@@H](OCCCc3ccccc3)[C@H](C)OC2=O)c1OCOC(C)=O [Compound 60] |  | 0 to 80 |  |
| COc1ccnc(C(=O)N[C@H]2COC[C@H](OCC(C)C)[C@@H](Oc3ccccc3)[C@H](C)OC2=O)c1OCOC(C)=O [Compound 85] |  | 80 to 100 | 80 to 100 |
| COc1ccnc(C(=O)N[C@H]2COC[C@H](Oc3ccccc3)[C@@H](OCC(C)C)[C@H](C)OC2=O)c1OCOC(C)=O [Compound 86] |  | 80 to 100 | 0 to 80 |
| COc1ccnc(C(=O)N[C@H]2COC[C@H](OC)[C@@H](OC)[C@H](C)OC2=O)c1OCOC(C)=O [Compound 65] |  | 0 to 80 | 0 to 80 |
| CCC(C)(C)O[C@H]1COC[C@H](NC(=O)c2nccc(OC)c2OCOC(C)=O)C(=O)O[C@@H](C)[C@@H]1OCC(C)C [Compound 78] |  | 0 to 80 | 0 to 80 |
| CCCO[C@H]1[C@H](C)OC(=O)[C@@H](NC(=O)c2nccc(OC)c2OCOC(C)=O)COC[C@@H]1Oc1ccccc1 [Compound 222] | A (80-100) |  |  |
| COc1ccnc(C(=O)N[C@H]2COC[C@H](OCC(C)C)[C@@H](OC3CCCCC3)[C@H](C)OC2=O)c1OCOC(C)=O [Compound 77] |  | 80 to 100 | 0 to 80 |
| COc1ccnc(C(=O)N[C@H]2COC[C@H](Oc3ccc(F)cc3)[C@@H](Oc3ccc(F)cc3)[C@H](C)OC2=O)c1OCOC(C)=O [Compound 231] | A (80-100) |  |  |
| COc1ccnc(C(=O)N[C@H]2COC[C@H](OCC(C)C)[C@@H](OCC(C)C)[C@H](C)OC2=O)c1OCOC(C)=O [Compound 3, (2-((3S,7S,8S,9S)-7,8-diisobutoxy-9-methyl-2-oxo-1,5-dioxonan-3-ylcarbamoyl)-4-methoxypyridin-3-yloxy)methyl] |  | 80 to 100 | 80 to 100 |
| COc1ccnc(C(=O)N[C@H]2COC[C@H](OCCCC(F)(F)F)[C@@H](OCCCC(F)(F)F)[C@H](C)OC2=O)c1OCOC(C)=O [Compound 68] |  | 0 to 80 | 0 to 80 |
| COc1ccnc(C(=O)N[C@H]2COC[C@H](Oc3ccccc3)[C@@H](Oc3ccccc3)[C@H](C)OC2=O)c1OCOC(C)=O [Compound 84] | A (80-100) | 80 to 100 |  |
| COc1ccnc(C(=O)N[C@H]2COC[C@H](OCC(C)C)[C@@H](OCC(C)C)[C@H](C)OC2=O)c1OCOC(=O)C(C)C [Compound 2] |  | 80 to 100 | 80 to 100 |
| COc1ccnc(C(=O)NC2COC[C@H](OCc3ccccc3)[C@@H](OCc3ccccc3)[C@H](C)OC2=O)c1OCOC(C)=O (stereo partly shown) [Compound 12] |  | 0 to 80 | 0 to 80 |
| CCCO[C@H]1COC[C@H](NC(=O)c2nccc(OC)c2OCOC(C)=O)C(=O)O[C@@H](C)[C@@H]1Oc1ccccc1 [Compound 221] | A (80-100) |  |  |
